Data published in patent publication US20220041616A1, “SPIRO COMPOUND AND MEDICAL USES THEREOF” (The National Institutes of Pharmaceutical R&D Co., Ltd., priority 2018, published 2022).

Test system: HepG2 cells
Assay: In vitro inhibition of proliferation of HepG2 cells, CellTiter-Glo
Format: cell-based, human
Conditions: 3 days incubation, top concentration 30 μM
Excerpt: CellTiter-Glo Analysis Kit (Promega) was used for the detection of the inhibitory effect of the present compound on the proliferation of HepG2 cells. The CellTiter-Glo detection method uses luciferase, which requires ATP for its reaction and luminescence. The intensity of the luminescent signal depends on the amount of ATP, and the amount of ATP depends on the number of living cells. Said analysis only requires that ATP in living cells is converted to luminescence by UltraGlo™ luciferase after treatment with the tested drug, so that the inhibitory effect of the compound is detected based on the luminescence intensity, and its IC50 value is calculated.
a. HepG2 cells were purchased from the American type culture collection (ATCC) resource bank. Cells were cultured in MEM (GIBCO) containing 10% fetal bovine serum, penicillin (100 units/mL) and streptomycin (100 μg/mL), and then incubated in a 37° C. incubator containing 5% carbon dioxide, and passaged once every 2 to 3 days.
b. On the first day, 800 HepG2 cells were inoculated in each well of a 384-well cell culture plate, and then incubated in a 37° C. incubator containing 5% carbon dioxide.
c. On the second day, the medium was changed to that containing the compound. The concentrations of the compound were 30 μM, 10 μM, 3.33 μM, 1.11 μM, 0.37 μM, 0.123 μM, 0.0411 μM, 0.0137 μM, 0.00457 μM and 0.00152 μM. The final concentration of DMSO was 0.3% (v/v). The plate was incubated for 3 days in a incubator containing 5% carbon dioxide at 37° C. The reaction system with paclitaxel at a final concentration of 1 μM was used as positive control; the reaction system with no compound but DMSO at a final concentration of 0.3% was used as negative control.
d. […]
f. The chemiluminescence signal value was read with Envision 2104 instrument.
The average value of the positive and negative control well and the standard deviation were calculated. The percentage inhibition rate was calculated according to the following formula: 100×[1−(compound−average value of positive control)/(average value of negative control−average value of positive control)]. […]

Structure (SMILES) | IC50 (Homo sapiens, HepG2, 72 h) [µM] | IC50 [µM]
COc1ccccc1C(CN1C(=O)C2(CCC(C(=O)O)C2)C(=O)c2c1sc(-c1ncco1)c2C)OC1CCOCC1 (mixture of isomers) [Compound 5x, 7′-(2-(2-methoxyphenyl)-2-((tetrahydro-2H-pyran-4-yl)oxy)ethyl)-3′-methyl-2′-(oxazol-2-yl)-4′,6′-dioxo-6′,7′-dihydro-4′H-spiro[cyclopentane-1,5′-thieno[2,3-b]pyridine]-3-carboxylic Acid] | > 30 | 
COc1ccccc1C(CN1C(=O)C2(CCC(C(=O)O)C2)C(=O)c2c1sc(-c1ncco1)c2C)OC1CCOCC1 (mixture of isomers) [Compound 5y, 7′-(2-(2-methoxyphenyl)-2-((tetrahydro-2H-pyran-4-yl)oxy)ethyl)-3′-methyl-2′-(oxazol-2-yl)-4′,6′-dioxo-6′,7′-dihydro-4′H-spiro[cyclopentane-1,5′-thieno[2,3-b]pyridine]-3-carboxylic Acid] |  | > 30
COc1ccccc1C(CN1C(=O)C2(CC(C(=O)O)C2)C(=O)c2c1sc(-c1ncco1)c2C)OC1CCOCC1 (mixture of isomers) [Compound 8, 7′-(2-(2-methoxyphenyl)-2-((tetrahydro-2H-pyran-4-yl)oxy)ethyl)-3′-methyl-2′-(oxazol-2-yl)-4′,6′-dioxo-6′,7′-dihydro-4′H-spiro[cyclobutane-1,5′-thieno[2,3-b]pyridine]-3-carboxylic Acid] | > 30 | 
